These results are taken from patent US20070286822A1, “Compounds for the Treatment of Periodontal Disease” (ANACOR PHARMACEUTICALS INC., priority 2006, published 2007).

In turn, `COc1ccc(Sc2ccc3c(c2)B(O)OC3)cc1` [C32, 6-(4-methoxyphenylthio)benzo[c][1,2]oxaborol-1(3H)-ol] gave a melting point of 95 to 100 °C.

On to `OB1OCc2ccc(N3CCN(c4ccccc4)CC3)cc21` [C53, 6-(4-phenylpiperazin-1-yl)benzo[c][1,2]oxaborol-1(3H)-ol], for which the melting point lay in the range of 159 to 161 °C.

With `N#Cc1cccc(Oc2ccc3c(c2)B(O)OC3)c1` [C19, 3-(1-hydroxy-1,3-dihydrobenzo[c][1,2]oxaborol-6-yloxy)benzonitrile], the melting point is 146 to 149 °C.

`[O-][S+](c1ccc(C(F)(F)F)cc1)c1ccc2c(c1)B(O)OC2` (stereo not shown) [C93, 6-(4-(trifluoromethyl)phenylsulfinyl)benzo[c][1,2]oxaborol-1(3H)-ol] displayed a melting point of 79 to 88 °C.

Turning to `O=C(Nc1ccc2c(c1)B(O)OC2)c1ccccc1` [C52, N-(1-hydroxy-1,3-dihydrobenzo[c][1,2]oxaborol-6-yl)benzamide], the melting point fell in the range of 186 to 193 °C.

Turning to `OB1OCc2ccc(Oc3ccc(C(F)(F)F)cc3)cc21` [C87, 6-(4-(trifluoromethyl)phenoxy)benzo[c][1,2]oxaborol-1(3H)-ol], the melting point was in the range of 98 to 105 °C.

The compound `N#CCCSc1cn(-c2ccc3c(c2)B(O)OC3)c2ccccc12` [C67, 3-(1-(1-hydroxy-1,3-dihydrobenzo[c][1,2]oxaborol-6-yl)-1H-indol-3-ylthio)propanenitrile] registered a melting point of 135 to 141 °C.

In turn, `Fc1ccc2c(c1)COB2c1ccccc1` [9b, 1,3-Dihydro-5-fluoro-1-phenyl-2,1-benzoxaborole] came in with a melting point of 90 to 99 °C.

As for `OB1OCc2ccc(NCc3ccccc3)cc21` [C77, 6-(benzylamino)benzo[c][1,2]oxaborol-1(3H)-ol], the melting point fell in the range of 126 to 133 °C.

`O=S(=O)(Nc1ccc2c(c1)B(O)OC2)c1ccccc1` [C62, N-(1-hydroxy-1,3-dihydrobenzo[c][1,2]oxaborol-6-yl)benzenesulfonamide]: the melting point lay within 175 to 184 °C.

The compound `COc1ccc2c(c1)COB2O` [C7, 5-methoxybenzo[c][1,2]oxaborol-1(3H)-ol] came in with a melting point of 102 to 104 °C.

Take `Fc1ccc2c(c1)COB2C=Cc1ccccc1` [10b, 1,3-Dihydro-5-fluoro-1-styryl-2,1-benzoxaborole]: the melting point was in the range of 84 to 86 °C.

Consider `Fc1ccc(B2OCc3cc(F)ccc32)cc1` [9h, 1,3-Dihydro-5-fluoro-1-(4-fluorophenyl)-2,1-benzoxaborole], for which the melting point lay within 75 to 77 °C.

Compound `CC(=O)Nc1ccc2c(c1)B(O)OC2` [C63, N-(1-hydroxy-1,3-dihydrobenzo[c][1,2]oxaborol-6-yl)acetamide] returned a melting point of 176 to 185 °C.

As to `OB1OCc2ccc(-n3ccc4ccccc43)cc21` [C55, 6-(1H-indol-1-yl)benzo[c][1,2]oxaborol-1(3H)-ol], the melting point lay within 135 to 140 °C.

`OB1OCc2ccc3ccccc3c21` [C11, naphtho[1,2-c][1,2]oxaborol-1(3H)-ol] displayed a melting point of 139 to 143 °C.

Compound `OB1OCc2ccc(N3CCOCC3)cc21` [C56, 6-morpholinobenzo[c][1,2]oxaborol-1(3H)-ol] had a melting point of 128 to 132 °C.

On to `OB1OCc2ccc(-n3cc(Sc4ccccc4)c4cc(Cl)ccc43)cc21` [C80, 6-(5-chloro-3-(phenylthio)-1H-indol-1-yl)benzo[c][1,2]oxaborol-1(3H)-ol], for which the melting point lay within 145 to 151 °C.

Regarding `OB1OCc2ccc(Sc3ccc(C(F)(F)F)cc3)cc21` [C92, 6-(4-(trifluoromethyl)phenylthio)benzo[c][1,2]oxaborol-1(3H)-ol], the melting point lay within 111 to 113 °C.

For `CCCCC(=O)c1cccc(COc2ccc3c(c2)COB3O)c1` [C45, 1-(3-((1-hydroxy-1,3-dihydrobenzo[c][1,2]oxaborol-5-yloxy)methyl)phenyl)pentan-1-one], the melting point fell in the range of 96 to 98 °C.

Take `OB1OCc2ccc(Sc3cccs3)cc21` [C43, 6-(thiophen-2-ylthio)benzo[c][1,2]oxaborol-1(3H)-ol]: the melting point lay within 99 to 104 °C.

Regarding `OB1OCc2ccc(Sc3ccc(Cl)cc3)cc21` [C88, 6-(4-chlorophenylthio)benzo[c][1,2]oxaborol-1(3H)-ol], the melting point is 157 to 161 °C.

Turning to `[O-][S+](c1ccc(Cl)cc1)c1ccc2c(c1)B(O)OC2` (stereo not shown) [C89, 6-(4-chlorophenylsulfinyl)benzo[c][1,2]oxaborol-1(3H)-ol], the melting point was 154 to 161 °C.

Consider `OB1OCc2ccc(Sc3ccc(F)cc3)cc21` [C44, 6-(4-fluorophenylthio)benzo[c][1,2]oxaborol-1(3H)-ol], for which the melting point fell in the range of 135 to 138 °C.

`CN(C)c1ccc2c(c1)B(O)OC2` [C51, 6-(dimethylamino)benzo[c][1,2]oxaborol-1(3H)-ol] showed a melting point of 120 to 123 °C.

`OB1OCc2ccc(Oc3ccccc3)cc21` [C21, 6-phenoxybenzo[c][1,2]oxaborol-1(3H)-ol] yielded a melting point of 95 to 99 °C.

`O=C(COc1ccc2c(c1)COB2O)N1CCN(c2ncccn2)CC1` [C47, 2-(1-hydroxy-1,3-dihydrobenzo[c][1,2]oxaborol-5-yloxy)-1-(4-(pyrimidin-2-yl)piperazin-1-yl)ethanone] registered a melting point of 190 to 195 °C.

The compound `OB1OCc2ccc(Oc3ccc(Cl)cc3)cc21` [C20, 6-(4-chlorophenoxy)benzo[c][1,2]oxaborol-1(3H)-ol] came in with a melting point of 119 to 130 °C.

The compound `O=C(COc1ccc2c(c1)COB2O)N1CCCCC1` [C46, 2-(1-hydroxy-1,3-dihydrobenzo[c][1,2]oxaborol-5-yloxy)-1-(pieridin-1-yl)ethanone] yielded a melting point of 158 to 163 °C.

In turn, `COc1ccc(S(=O)(=O)c2ccc3c(c2)B(O)OC3)cc1` [C33, 6-(4-methoxyphenylsulfonyl)benzo[c][1,2]oxaborol-1(3H)-ol] showed a melting point of 180 to 192 °C.

The compound `OB1OCc2cc3c(cc21)COB3O` [C60, 3,7-dihydro-1,5-dihydroxy-1H,3H-Benzo[1,2-c:4,5-c′]bis[1,2]oxaborole] returned a melting point greater than 250 °C.

For the compound `Fc1cccc(B2OCc3cc(F)ccc32)c1` [9g, 1,3-Dihydro-5-fluoro-1-(3-fluorophenyl)-2,1-benzoxaborole], the melting point was in the range of 80 to 82 °C.

In turn, `OB1OCc2cc3c(cc21)OCO3` [C69, 5,6-methylenedioxybenzo[c][1,2]oxaborol-1(3H)-ol] yielded a melting point of 185 to 189 °C.

Compound `Cc1cccc(B2OCc3cc(F)ccc32)c1` [9i, 1,3-Dihydro-5-fluoro-1-(3-methylphenyl)-2,1-benzoxaborole] registered a melting point of 48 to 49 °C.

Turning to `OB1OCc2ccc(-n3ccc4cc(Cl)ccc43)cc21` [C75, 6-(5-chloro-1H-indol-1-yl)benzo[c][1,2]oxaborol-1(3H)-ol], the melting point is 149 to 154 °C.

Compound `OB1OCc2cccc(F)c21` [C86, 7-fluorobenzo[c][1,2]oxaborol-1(3H)-ol] had a melting point of 120 to 124 °C.

`N#Cc1cccc(COc2ccc3c(c2)COB3O)c1` [C96, 3-((1-hydroxy-1,3-dihydrobenzo[c][1,2]oxaborol-5-yloxy)methyl)benzonitrile] registered a melting point of 147 to 150 °C.

`O=S(=O)(c1ccccc1)N(c1ccc2c(c1)COB2O)S(=O)(=O)c1ccccc1` [C91, N-(1-hydroxy-1,3-dihydrobenzo[c][1,2]oxaborol-5-yl)-N-(phenylsulfonyl)benzenesulfonamide] had a melting point of 142 to 152 °C.

Take `Cc1ccc2c(c1)COB2O` [C8, 5-methylbenzo[c][1,2]oxaborol-1(3H)-ol]: the melting point was in the range of 124 to 128 °C.

Turning to `Fc1ccc2c(c1)COB2c1cccnc1` [compound 15, 3-(1,3-Dihydro-5-fluoro-2,1-benzoxaborol-1-yl)pyridine], the melting point was in the range of 210 to 212 °C.

Compound `N#CCCSc1cn(-c2ccc3c(c2)B(O)OC3)c2ccc(Cl)cc12` [C76, 3-(5-chloro-1-(1-hydroxy-1,3-dihydrobenzo[c][1,2]oxaborol-6-yl)-1H-indol-3-ylthio)propanenitrile] gave a melting point greater than 225 °C.

`OB1OCc2ccc(N(Cc3ccccc3)Cc3ccccc3)cc21` [C78, 6-(dibenzylamino)benzo[c][1,2]oxaborol-1(3H)-ol]: the melting point lay within 115 to 123 °C.

`Fc1ccc(B2OCc3ccccc32)cc1` [9e, 1,3-Dihydro-1-(4-fluorophenyl)-2,1-benzoxaborole] showed a melting point of 53 to 55 °C.

`OB1OCc2cc(F)c(NCc3ccccc3)cc21` [C71, 6-(benzylamino)-5-fluorobenzo[c][1,2]oxaborol-1(3H)-ol] returned a melting point of 159 to 164 °C.

On to `CN(c1ccc2c(c1)COB2O)S(=O)(=O)c1ccccc1` [C30, N-(1-hydroxy-1,3-dihydrobenzo[c][1,2]oxaborol-5-yl)-N-methylbenzenesulfonamide], for which the melting point was 85 to 95 °C.

`O=S(=O)(c1ccc(Cl)cc1)c1ccc2c(c1)B(O)OC2` [C90, 6-(4-chlorophenylsulfonyl)benzo[c][1,2]oxaborol-1(3H)-ol] returned a melting point of 157 to 163 °C.

As for `O=[N+]([O-])c1cc2c(cc1F)COB2O` [C58, 5-fluoro-6-nitrobenzo[c][1,2]oxaborol-1(3H)-ol], the melting point lay within 162 to 167 °C.

Consider `COc1ccc2c(ccn2-c2ccc3c(c2)B(O)OC3)c1` [C68, 6-(5-methoxy-1H-indol-1-yl)benzo[c][1,2]oxaborol-1(3H)-ol], for which the melting point was in the range of 120 to 124 °C.

In turn, `C(=Cc1ccccc1)B1OCc2ccccc21` [10a, 1,3-Dihydro-1-styryl-2,1-benzoxaborole] showed a melting point of 57 to 59 °C.

`Nc1cc2c(cc1F)COB2O` [C70, 6-amino-5-fluorobenzo[c][1,2]oxaborol-1(3H)-ol] yielded a melting point of 142 to 145 °C.

`COc1ccc(Oc2ccc3c(c2)B(O)OC3)cc1` [C31, 6-(4-methoxyphenoxy)benzo[c][1,2]oxaborol-1(3H)-ol] returned a melting point of 126 to 129 °C.

`Fc1ccc2c(c1)COB2c1ccsc1` [compound 13, 1,3-Dihydro-5-fluoro-1-(thiophen-3-yl)-2,1-benzoxaborole] came in with a melting point of 33 to 35 °C.
